The structures appear in SMILES notation. Converted amounts (≈) assume the structure as drawn.

The conditions of series [1]: i.p.
Series [2] is described as follows: Solubility in water at 37°C. In kind it is physicochemical. To be noted: at 37°C in water.
In series [3] the test system is herpes simplex virus type 2. Description: Genital herpes infection in female guinea pigs, suppression of lesion development (intravaginal agarose gel treatment). In kind it is in vivo. To be noted: for animals with lesions: 5% vidarabine formulation in 0.8% agarose gel. How it is done: The antiviral efficacy of these compounds in the treatment of genital infections in female guinea pigs was determined, the infecting virus being herpes simplex virus […]. The in vivo efficacy was measured in terms of the effect of these compounds in suppressing lesion development induced by the infecting virus. The incidence of lesions for virus-infected animals treated with the test compound was measured and compared with the results obtained for virus-infected control animals treated with placebo, or with the results obtained for untreated virus-infected animals. In the control group of animals small lesions usually appeared 3 to 4 days following infection, the virus-induced lesions reaching a maximum severity around 7 days postinfection this peak being followed by scab formation and then healing. In each case the test animals were infected by intravaginal inoculation with the herpes simplex virus type 2 in 0.1 ml of cell culture medium. 0.1 ml of a 0.8% agarose gel containing the test compound at the stated concentration was then administered intravaginally, treatment commencing (unless otherwise stated) 3 hours postinfection and the test compound being administered 3 times daily for 7 days. […] For the results given in Table 2, drug administration was commenced 6 hours postinfection and the test compound administered three times daily for 5 days.

By solubility is commonly meant the dissolved amount per volume that the medium holds. Higher therefore signals a readily soluble substance. For `COCC(=O)OC[C@H]1C[C@@H](n2cnc3c(N)ncnc32)[C@@H](O)[C@@H]1O` (racemic) [Compound B, 9-[2α,3β-dihydroxy-4α(methoxyacetoxymethyl)cyclopent-1 α-yl]adenine], in series [1] (highest dose tested of 750 mg/kg), the signs of toxicity result was “no signs of toxicity at all”. The compound also displayed a solubility in series [2] of 75 mg/mL (≈ 222 mM). Moreover, the “animals developed virus-induced lesions” value in series [3] (administration commenced 6 hours postinfection, three times daily for 5 days, controls 60-90%) was 33%.
As for `Nc1ncnc2c1ncn2[C@@H]1C[C@H](CO)[C@@H](O)[C@@H]1O` (racemic) [cyclaradine, 9 - [2α,3β-dihydroxy - 4α - (hydroxymethyl)cyclopent - 1 a - yl] - adenine], the lethality entry in series [1] (dose of 900 mg/kg) is “not lethal”. The compound also returned a solubility in series [2] of 1 mg/mL (≈ 3.77 mM). Moreover, the “test animals had lesions” value in series [3] (day 7 postinfection, concentration 3%) is 100%; in series [3] (day 7 postinfection, concentration 10%) it was 100%.
On to `COCC(=O)OC[C@H]1O[C@@H](n2cnc3c(N)ncnc32)[C@@H](O)[C@@H]1O` [Compound A, 9-s-D-Arabinofuranosyladenine-5'-methoxyacetate], for which the lesion formation result in series [3] (concentration of 15% in 0.8% agarose gel, intravaginal, start 3 hours postinfection, 3 times daily for 7 days) is listed as “completely suppressed lesion formation”.
With `Nc1ncnc2c1ncn2[C@@H]1O[C@H](CO)[C@@H](O)[C@@H]1O` [vidarabine, 9-(β-D-arabinofuranosyl)-adenine], the values for the animals with lesions in series [3] (day 4 postinfection) and in series [3] (day 7 postinfection) were 50% and 80%, respectively.

These data come from EP0042596B1, “Novel adenine nucleoside derivatives, their preparation and pharmaceutical compositions containing them” (REGENTS OF THE UNIVERSITY OF MINNESOTA, priority 1980, dated 1981).
